Results as given in patent publication US20240215578A1 (priority 2022, published 2024).

Assays:
R. solanacearum [1] = details: for bactericidal activity against R. solanacearum: from data in Table 4
R. solanacearum [2] = type: cell-based; details: Oxford cup, 37° C., 16-18 hours, FIG. 1

| SMILES | LC50 (E. coli) [ppm] | LC50 (E. carotovora) [ppm] | LC50 (R. solanacearum [1]) [ppm] | bactericidal activity (zone of inhibition), preliminary screening (R. solanacearum [2]) | activity against E. coli compared with the control drugs (E. coli) | activity against E. carotovora compared with the control drugs (E. carotovora) | bactericidal activity against R. solanacearum (R. solanacearum [1]) |
| --- | --- | --- | --- | --- | --- | --- | --- |
| [H]/N=C(/N)N[C@H]1[C@H](O)[C@@H](O)[C@H](O[C@@H]2O[C@@H](C)[C@](O)(C=O)[C@H]2O[C@@H]2O[C@@H](CO)[C@H](O)[C@@H](O)[C@@H]2NC)[C@@H](N/C(N)=N\[H])[C@@H]1O [Streptomycin, reference compound] | 1.918 | 4.519 | 0.169 |  |  |  |  |
| O=C(O)c1cn(C2CC2)c2ccccc2c1=O [Compound I2] | 0.913 | 5.284 | 13.790 | significant bactericidal activity | more active against E. coli than the control drugs |  |  |
| CCn1cc(C(=O)O)c(=O)c2ccc(C)nc21 [Compound I36] | 37.917 | 15.743 | 30.519 | significant bactericidal activity |  |  |  |
| O=C(O)c1cn(C2CC2)c2nc(N3CCNCC3)c(F)cc2c1=O [Compound I44] | 0.0000091 | 0.00018 | 0.284 | significant bactericidal activity | more active against E. coli than the control drugs | more active against E. carotovora than the control drugs | significant bactericidal activity |
| CCn1cc(C(=O)O)c(=O)c2cc(F)c(Cl)nc21 [Compound I38] | 12.643 | 0.264 | 12.724 | significant bactericidal activity |  | more active against E. carotovora than the control drugs |  |
| O=C(O)c1cn(C2CC2)c2nc(Cl)c(F)cc2c1=O [Compound I40] | 0.064 | 4.040 | 0.002 | significant bactericidal activity | more active against E. coli than the control drugs | more active against E. carotovora than the control drugs | significant bactericidal activity |
